Assay results as given in PubChem BioAssay AID2197 (Vanderbilt High Throughput Screening Facility, 2009).
The source made the active and inactive calls. No rule for the calls is given here.

What follows are compounds tested against Metabotropic glutamate receptor 4 (Homo sapiens) (UniProt Q14833) (assay: PubChem AID 2197). Settings: CHO hmGluR4/Gqi5 calcium mobilization, PAM potency.
Sequence of Metabotropic glutamate receptor 4 (Homo sapiens) (Q14833 whole entry, looked up): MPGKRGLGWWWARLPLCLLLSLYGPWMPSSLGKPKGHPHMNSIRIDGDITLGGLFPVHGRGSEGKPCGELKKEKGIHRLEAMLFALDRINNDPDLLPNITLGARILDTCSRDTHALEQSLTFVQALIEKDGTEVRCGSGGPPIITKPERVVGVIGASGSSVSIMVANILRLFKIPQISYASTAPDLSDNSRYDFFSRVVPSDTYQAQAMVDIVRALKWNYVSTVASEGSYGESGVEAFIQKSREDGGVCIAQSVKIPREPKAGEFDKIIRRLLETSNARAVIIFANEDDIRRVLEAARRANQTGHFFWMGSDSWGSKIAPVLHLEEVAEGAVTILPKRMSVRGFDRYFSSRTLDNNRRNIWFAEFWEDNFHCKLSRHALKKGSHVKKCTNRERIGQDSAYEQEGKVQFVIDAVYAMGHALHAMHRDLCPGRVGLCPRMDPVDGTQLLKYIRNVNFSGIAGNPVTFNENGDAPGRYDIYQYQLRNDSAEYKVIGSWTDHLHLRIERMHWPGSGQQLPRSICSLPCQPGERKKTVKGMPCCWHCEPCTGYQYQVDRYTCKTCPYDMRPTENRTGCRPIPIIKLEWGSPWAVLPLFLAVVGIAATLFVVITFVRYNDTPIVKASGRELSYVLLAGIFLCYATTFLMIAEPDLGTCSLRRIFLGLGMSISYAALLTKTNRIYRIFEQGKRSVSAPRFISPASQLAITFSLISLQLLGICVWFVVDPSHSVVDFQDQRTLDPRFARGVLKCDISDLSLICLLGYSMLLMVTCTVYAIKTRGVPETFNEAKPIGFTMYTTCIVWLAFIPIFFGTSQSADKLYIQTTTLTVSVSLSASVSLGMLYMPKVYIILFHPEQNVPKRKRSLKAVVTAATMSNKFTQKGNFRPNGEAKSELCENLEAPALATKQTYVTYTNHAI

In order of falling EC50:
1. O=C(Nc1ccc(Cl)c(Cl)c1)c1ccncn1  2840 nM
2. O=C(Nc1ccc(Cl)c(C(F)(F)F)c1)c1ccccn1  2050 nM
3. O=C(Nc1ccc(F)c(C(F)(F)F)c1)c1ccccn1  1530 nM
4. O=C(Nc1ccc(Cl)c(Cl)c1)c1ccccn1  1370 nM
5. O=C(Nc1cccc(Cl)c1)c1ccccn1  1090 nM
6. COc1ccc(NC(=O)c2ccccn2)cc1Cl  1050 nM
7. COc1cc(NC(=O)c2ccccn2)ccc1F  776 nM
8. COc1cc(NC(=O)c2ccccn2)ccc1C  562 nM

Same assay, conditions: CHO hmGluR4/Gqi5 calcium mobilization, PAM potency; at 30.1 µM (top of the series)

With `O=C(Nc1ccc(N2CCCS2(=O)=O)cc1)c1ccccn1` the “% glutamate max response” value was “inactive”.
With `O=C(Nc1cccc(C(F)(F)F)n1)c1ccccn1` the “% glutamate max response” value was “inactive”.
`COc1cc(NC(=O)c2ccccn2)ncn1` was tested, and the “% glutamate max response” value was “inactive”.
